Data on 14 compounds can be found in EP4768484A1, “HETEROCYCLIC FUSED RING COMPOUND, AND COMPOSITION AND USE THEREOF” (Shenzhen TargetRx, Inc., priority 2023, dated 2025).

Holding throughout (type): cell-based
The test system of one experiment is K562 cells. The experiment can be described thus: Cell growth inhibitory activity assay (CellTiter-Glo), K562 cells. As to conditions: Homo sapiens, 72 h, CTG cell viability. The gist of the method:
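Growth inhibition of human K562 cells, sourced from Nanjing Kebai (CBP60529), was assessed with Promega's CellTiter-Glo kit, which measures viability through ATP quantification. Log-phase cells went into the inner wells of 96-well plates, with PBS in edge wells, incubated overnight at 37 °C and 5% CO2, then exposed to serially diluted compound for 72 h.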
In general terms: In ATP-based viability assays light output follows the ATP content of the culture.

The next experiment concerns the target T1, Ba/F3 BCR-ABL1 WT (Homo sapiens, UniProt P00519+P11274).
T1 construct: BCR (N-terminal fusion partner of the oncoprotein); expressed in transfected cells; host or cells: Ba/F3 (lentiviral transduction, monoclonal line)
The experiment can be described thus: Cell growth inhibitory activity assay (CellTiter-Glo), Ba/F3 BCR-ABL1 WT cells. The conditions noted are these: 72 h, CTG cell viability. The procedure, abridged:
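Compound dilutions applied for 72 h (37 °C, 5% CO2) to overnight-plated Ba/F3 cells, parental or engineered to express WT/mutant BCR-ABL1. ATP-based CellTiter-Glo luminescence read, referenced to day-0 viability and 0.5% DMSO wells; IC50 fitted by four-parameter logistic curve.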

The target in another experiment is T2, Ba/F3 BCR-ABL1 T315I (Homo sapiens, UniProt P00519+P11274, T315I).
T2 construct: BCR (N-terminal fusion partner of the oncoprotein); expressed in transfected cells; host or cells: Ba/F3 (lentiviral transduction, monoclonal line)
In words: Cell growth inhibitory activity assay (CellTiter-Glo), Ba/F3 BCR-ABL1 T315I cells. The conditions noted are these: 72 h, CTG cell viability. The gist of the method:
(§1)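 Growth inhibition is measured in engineered Ba/F3 cells carrying mutant human BCR-ABL1 and in parental Ba/F3. Compounds in dilution series are applied for 72 h, then cellular ATP is quantified with CellTiter-Glo, normalised using a T0 baseline plate, and IC50 derived by nonlinear regression.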

In a further experiment the test system is Ba/F3 parental cells. The experiment can be described thus: Cell growth inhibitory activity assay (CellTiter-Glo), Ba/F3 parental cells. As to conditions: Mus musculus, BaF3, 72 h, CTG cell viability, read-out: IC50 Ba/F3 BCR-ABL1 Parental. The procedure, abridged:
as §1

pIC50: −log10 of the molar value.

As to `Cc1cc(C(F)(F)F)nc(-n2cc3c(n2)-c2cc(-c4cc(C(=O)Nc5ccc(OC(F)(F)Cl)cc5)cc5nc6n(c45)[C@H](C)COC6)cnc2C3)n1` [T-75, (R)-N-(4-(chlorodifluoromethoxy)phenyl)-4-methyl-6-(2-(4-methyl-6-(trifluoromethyl)pyrimidin-2-yl)-2,4-dihydropyrazolo[3',4':3,4]cyclopenta[1,2-b]pyridin-7-yl)-3,4-dihydro-1H-benzo[4,5]imidazo[2,1-c][1,4]oxazine-8-carboxamide], the pIC50 in the experiment with K562 cells is not below 8.30; at Ba/F3 BCR-ABL1 WT it was not below 8.30; against Ba/F3 BCR-ABL1 T315I, not below 8.30; with Ba/F3 parental cells, less than 6.00.

Regarding `COc1cnc(-n2cc3c(n2)-c2cc(-c4cc(C(=O)Nc5ccc(OC(F)(F)Cl)cc5)cc5nc6n(c45)[C@H](C)COC6)cnc2C3)nc1` [T-77, (R)-N-(4-(chlorodifluoromethoxy)phenyl)-6-(2-(5-methoxypyrimidin-2-yl)-2,4-dihydropyrazolo[3',4':3,4]cyclopenta[1,2-b]pyridin-7-yl)-4-methyl-3,4-dihydro-1H-benzo[4,5]imidazo[2,1-c][1,4]oxazine-8-carboxamide], the pIC50 is not below 8.30 in the experiment with K562 cells, not below 8.30 against Ba/F3 BCR-ABL1 WT, not below 8.30 against Ba/F3 BCR-ABL1 T315I and less than 6.00 with Ba/F3 parental cells.

Take `C[C@@H]1COCc2nc3cc(C(=O)Nc4ccc(OC(F)(F)Cl)cc4)cc(-c4cnc5c(c4)-c4nn(-c6ncc(C(F)(F)F)cn6)cc4C5)c3n21` [T-79, (R)-N-(4-(chlorodifluoromethoxy)phenyl)-4-methyl-6-(2-(5-(trifluoromethyl)pyrimidin-2-yl)-2,4-dihydropyrazolo[3',4':3,4]cyclopenta[1,2-b]pyridin-7-yl)-3,4-dihydro-1H-benzo[4,5]imidazo[2,1-c][1,4]oxazine-8-carboxamide]: the pIC50 is not below 8.30 with K562 cells, not below 8.30 on Ba/F3 BCR-ABL1 WT, not below 8.30 at Ba/F3 BCR-ABL1 T315I and less than 6.00 in the experiment on Ba/F3 parental cells.

As for `C[C@@H]1COCc2nc3cc(C(=O)Nc4ccc(OC(F)(F)Cl)cc4)cc(-c4cnc5c(c4)-c4nn(-c6ncc(-c7ccccc7)cn6)cc4C5)c3n21` [T-80, (R)-N-(4-(chlorodifluoromethoxy)phenyl)-4-methyl-6-(2-(5-phenylpyrimidin-2-yl)-2,4-dihydropyrazolo[3',4':3,4]cyclopenta[1,2-b]pyridin-7-yl)-3,4-dihydro-1H-benzo[4,5]imidazo[2,1-c][1,4]oxazine-8-carboxamide], the pIC50 in the experiment on K562 cells was not below 8.30; at Ba/F3 BCR-ABL1 WT it was not below 8.30; at Ba/F3 BCR-ABL1 T315I, not below 8.30; in the experiment with Ba/F3 parental cells, less than 6.00.

Take `C[C@@H]1COCc2nc3cc(C(=O)Nc4ccc(OC(F)(F)Cl)cc4)cc(-c4cnc5c(c4)-c4nn(-c6nccc(-c7ccccc7)n6)cc4C5)c3n21` [T-81, (R)-N-(4-(chlorodifluoromethoxy)phenyl)-4-methyl-6-(2-(4-phenyloyrimidin-2-yl)-2,4-dihydropyrazolo[3',4':3,4]cyclopenta[1,2-b]pyridin-7-yl)-3,4-dihydro-1H-benzo[4,5]imidazo[2,1-c][1,4]oxazine-8-carboxamide]: the pIC50 in the experiment with K562 cells was not below 8.30; against Ba/F3 BCR-ABL1 WT it was not below 8.30; against Ba/F3 BCR-ABL1 T315I, not below 8.30; with Ba/F3 parental cells, less than 6.00.

As for `C[C@@H]1COCc2nc3cc(C(=O)Nc4ccc(OC(F)(F)Cl)cc4)cc(-c4cnc5c(c4)-c4c(cnn4-c4ncc6ccccc6n4)C5)c3n21` [T-82-A, (R)-N-(4-(chlorodifluoromethoxy)phenyl)-4-methyl-6-(1-(guinazolin-2-yl)-1,4-dihvdropyrazolo[3',4':3,4]cyclopenta[1,2-b]pyridin-7-yl)-3,4-dihydro-1H-benzo[4,5]imidazo[2,1-c][1,4]oxazine-8-carboxamide], the pIC50 in the experiment with K562 cells is not below 8.30; against Ba/F3 BCR-ABL1 WT it was not below 8.30; against Ba/F3 BCR-ABL1 T315I, 7.30 to 8.30; in the experiment with Ba/F3 parental cells, less than 6.00.

With `C[C@@H]1COCc2nc3cc(C(=O)Nc4ccc(OC(F)(F)Cl)cc4)cc(-c4cnc5c(c4)-c4nn(-c6ncc7ccccc7n6)cc4C5)c3n21` [T-82-B, (R)-N-(4-(chlorodifluoromethoxy)phenyl)-4-methyl-6-(2-(quinazolin-2-yl)-2,4-dihydropyrazolo[3',4':3,4]cyclopenta[1,2-b]pyridin-7-yl)-3,4-dihydro-1H-benzo[4,5]imidazo[2,1-c][1,4]oxazine-8-carboxamide], the pIC50 in the experiment with K562 cells was not below 8.30; against Ba/F3 BCR-ABL1 WT it was not below 8.30; against Ba/F3 BCR-ABL1 T315I it was not below 8.30; in the experiment with Ba/F3 parental cells it was less than 6.00.

Consider `C[C@@H]1COCc2nc3cc(C(=O)Nc4ccc(OC(F)(F)Cl)cc4)cc(-c4cnc5c(c4)-c4nn(-c6ncc7ccsc7n6)cc4C5)c3n21` [T-83, (R)-N-(4-(chlorodifluoromethoxy)phenyl)-4-methyl-6-(2-(thieno[2,3-d]pyrimidin-2-yl)-2,4-dihydropyrazolo[3',4':3,4]cyclopenta[1,2-b]pyridin-7-yl)-3,4-dihydro-1H-benzo[4,5]imidazo[2,1-c][1,4]oxazine-8-carboxamide], for which the pIC50 with K562 cells is not below 8.30; against Ba/F3 BCR-ABL1 WT, not below 8.30; on Ba/F3 BCR-ABL1 T315I, not below 8.30; with Ba/F3 parental cells, less than 6.00.

Take `C[C@@H]1COCc2nc3cc(C(=O)Nc4ccc(OC(F)(F)Cl)cc4)cc(-c4cnc5c(c4)-c4nn(-c6ncc7c(ccn7C)n6)cc4C5)c3n21` [T-84, (R)-N-(4-(chlorodifluoromethoxy)phenyl)-4-methyl-6-(2-(5-methyl-5H-pyrrolo[3,2-d]pyrimidin-2-yl)-2,4-dihydropyrazolo[3',4':3,4]cyclopenta[1,2-b]pyridin-7-yl)-3,4-dihydro-1H-benzo[4,5]imidazo[2,1-c][1,4]oxazine-8-carboxamide]: the pIC50 in the experiment on K562 cells is not below 8.30; on Ba/F3 BCR-ABL1 WT it was not below 8.30; against Ba/F3 BCR-ABL1 T315I, not below 8.30; in the experiment on Ba/F3 parental cells it was less than 6.00.

On to `C[C@@H]1COCc2nc3cc(C(=O)Nc4ccc(OC(F)(F)Cl)cc4)cc(-c4cnc5c(c4)-c4nn(-c6ncc7ccn(C)c7n6)cc4C5)c3n21` [T-85, (R)-N-(4-(chlorodifluoromethoxy)phenyl)-4-methyl-6-(2-(7-methyl-7H-pyrrolo[2,3-d]pyrimidin-2-yl)-2,4-dihydropyrazolo[3',4':3,4]cyclopenta[1,2-b]pyridin-7-yl)-3,4-dihydro-1H-benzo[4,5]imidazo[2,1-c][1,4]oxazine-8-carboxamide], for which the pIC50 in the experiment on K562 cells was not below 8.30; at Ba/F3 BCR-ABL1 WT, not below 8.30; against Ba/F3 BCR-ABL1 T315I it was not below 8.30; in the experiment on Ba/F3 parental cells, less than 6.00.

As to `C[C@@H]1COCc2nc3cc(C(=O)Nc4ccc(OC(F)(F)Cl)cc4)cc(-c4cnc5c(c4)-c4nn(-c6ncc7cccnc7n6)cc4C5)c3n21` [T-86, (R)-N-(4-(chlorodifluoromethoxy)phenyl)-4-methyl-6-(2-(pyrido[2,3-d]pyrimidin-2-yl)-2,4-dihydropyrazolo[3',4':3,4]cyclopenta[1,2-b]pyridin-7-yl)-3,4-dihydro-1H-benzo[4,5]imidazo[2,1-c][1,4]oxazine-8-carboxamide], the pIC50 was not below 8.30 in the experiment on K562 cells, not below 8.30 against Ba/F3 BCR-ABL1 WT, not below 8.30 against Ba/F3 BCR-ABL1 T315I and less than 6.00 in the experiment with Ba/F3 parental cells.

Turning to `C[C@@H]1COCc2nc3cc(C(=O)Nc4ccc(OC(F)(F)Cl)cc4)cc(-c4cnc5c(c4)-c4nn(-c6nccc(-c7cccnc7)n6)cc4C5)c3n21` [T-87, (R)-N-(4-(chlorodifluoromethoxy)phenyl)-4-methyl-6-(2-(4-(pyridin-3-yl)pyrimidin-2-yl)-2,4-dihydropyrazolo[3',4':3,4]cyclopenta[1,2-b]pyridin-7-yl)-3,4-dihydro-1H-benzo[4,5]imidazo[2,1-c][1,4]oxazine-8-carboxamide], the pIC50 with K562 cells was not below 8.30; on Ba/F3 BCR-ABL1 WT, not below 8.30; against Ba/F3 BCR-ABL1 T315I it was not below 8.30; in the experiment with Ba/F3 parental cells, less than 6.00.

`C[C@@H]1COCc2nc3cc(C(=O)Nc4ccc(OC(F)(F)Cl)cc4)cc(-c4cnc5c(c4)-c4nn(-c6nccc(N7CCOCC7)n6)cc4C5)c3n21` [T-88, (R)-N-(4-(chlorodifluoromethoxy)phenyl)-4-methyl-6-(2-(4-morpholinopyrimidin-2-yl)-2,4-dihydropyrazolo[3',4':3,4]cyclopenta[1,2-b]pyridin-7-yl)-3,4-dihydro-1H-benzo[4,5]imidazo[2,1-c][1,4]oxazine-8-carboxamide]: the pIC50 in the experiment on K562 cells is not below 8.30; against Ba/F3 BCR-ABL1 WT it was not below 8.30; on Ba/F3 BCR-ABL1 T315I, not below 8.30; with Ba/F3 parental cells, less than 6.00.

As for `C[C@@H]1COCc2nc3cc(C(=O)Nc4ccc(OC(F)(F)Cl)cc4)cc(-c4cnc5c(c4)-c4nn(-c6nccc(-c7ccc(F)cc7)n6)cc4C5)c3n21` [T-89, (R)-N-(4-(chlorodifluoromethoxy)phenyl)-6-(2-(4-(4-fluorophenyl)pyrimidin-2-yl)-2,4-dihydropyrazolo[3',4':3,4]cyclopenta[1,2-b]pyridin-7-yl)-4-methyl-3,4-dihydro-1H-benzo[4,5]imidazo[2,1-c][1,4]oxazine-8-carboxamide], the pIC50 was not below 8.30 in the experiment on K562 cells, not below 8.30 at Ba/F3 BCR-ABL1 WT, not below 8.30 against Ba/F3 BCR-ABL1 T315I and less than 6.00 with Ba/F3 parental cells.
